Data set [1] addresses T1, C5a (Homo sapiens, UniProt P01031).
T1 sequence (P01031 678-751 limits assumed): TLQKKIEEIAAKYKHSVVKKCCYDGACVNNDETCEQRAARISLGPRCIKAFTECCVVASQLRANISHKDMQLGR
The data set can be described thus: Intracellular Ca++ mobilization in neutrophils triggered by C5a (calcium imaging). Type of data set: cell-based. As to conditions: 1 nM C5a, 350 nM peptide, human neutrophils (FIG. 5). The protocol: Neutrophils were isolated from fresh human blood with 0.2% EDTA as an anticoagulant. Whole blood was collected from a healthy volunteer (a collaborator of this study) via vein puncture. A 2.4 ml aliquot of blood was then layered onto 2 ml Mono-Poly Resolving Medium (Dainihon Seiyaku, Tokyo, Japan) in a centrifuge tube and centrifuged at 400 g for 20 min at room temperature. The polymorphonuclear leukocytes (neutrophils) were then harvested and the cell fraction was washed with Hanks' balanced salt solution (HBSS).
The isolated neutrophils were loaded with 2 μM Fura-2/AM (Molecular Probes, Eugene, Oreg.) mixed with 0.02% Pluronic F-127 (Molecular Probes) and 0.2% DMSO in HBSS for 40 min at 37° C. The suspension was agitated to prevent sedimentation. After loading, the cells were washed with HBSS twice and suspended in HBSS containing 0.3% BSA (HBSS/BSA). Approximately 1×10^6 cells in 900 μl HBSS/BSA were added to a poly-L-lysine-coated 35 mm Petri dish and allowed to attach to the bottom of the dish for 30 min. Changes in intracellular calcium concentrations in response to C5a or a mixture of peptides (C-peptides and C5a) were determined by monitoring the ratio of fluorescence light emission at 5I0 nm as a result of excitation at 340 and 380 nm at 37° C. using an ARGUS HiSCA calcium imaging system (Hamamatsu Photonics, Hamamatsu, Japan). The mixture of peptides and C5a was incubated in an Eppendorf tube on ice for 30 min in the HBSS solution and then applied to the cells after a 2 min baseline recording.
The effect of C-peptides on C5a function was analyzed by measuring Ca^++ mobilization using an ARUGUS HiSCA calcium imaging system. Administration of 0.7 nM recombinant human C5a (RhC5a) induced a transient increase in the level of intracellular Ca^++ of human neutrophils (FIG. 3a). The level of this activation was about 50% of the maximum achieved with higher concentrations of C5a. A mixture of C-peptide and C5a was incubated in an Eppendorf tube on ice for 30 min in the HBSS solution and then applied to the cells. […]

Data set [2] has as its system ICR mice. The experiment in a line: Lethal shock of mice induced by intravenous CAWS (Candida albicans water soluble extract). Type of data set: in vivo, mouse. The protocol: (§1) Within one exemplary embodiment illustrating construction of useful C5a-modulatory peptide analogs and mimetics from a direct C5a complement peptide (or reference C5a-modulatory peptide sequence), an acetylated derivative of Pep-A (A-Pep-A) was constructed and tested for use within the methods and compositions of the invention. A-Pep-A is a peptide with the same sequence as that of Pep-A with acetylated alanine at the amino-terminal amino acid. Effect of A-Pep-A was tested on the lethal shock of mice induced by intravenous administration of CAWS (Candida albicans water soluble extract). […] ICR mice were injected with 4 mg/kg of A-Pep-A intraperitonally (i.p.) or intravenously (i.v.) 10 min before i.v. challenge with […] 100 μg CAWS. […] Effect of A-Pep-A was also evaluated on the skin reaction of rats. As an indicator dye of vascular exudation, rats were i.v. injected with 0.5 ml of Evans Blue (8 mg/ml in saline) 30 min before intradermal (i.d.) injection of 5 μg 512 (anti-Crry monoclonal antibody) together with Pep-A, A-Pep-A of saline control).

The test system of data set [3] is skin reaction of rats. The data set can be described thus: Skin reaction of rats: Evans Blue exudation after intradermal 5I2 (anti-Crry mAb). Type of data set: in vivo, rat. The protocol:
as §1, with “As an indicator dye of vascular exudation, rats were i.v. injected with 0.5 ml of Evans Blue (8 mg/ml in saline) 30 min before intradermal (i.d.) injection of 5 μg 512 (anti-Crry monoclonal antibody) together with Pep-A, A-Pep-A of saline control).” left out

The test system of data set [4] is Rat Lethal Shock Model (C5a-mediated). The experiment in a line: Rat lethal shock induced by anti-Crry antibody following LPS priming. Type of data set: in vivo. The procedure:
Administration of anti-rat Crry mAb (5I2) (Takizawa et al., J. Immunol. 152:3032, 1994) induces lethal shock in rats primed with a trace amount of lipopolysaccharide (LPS) (Matsuo et al., J. Exp. Med. 180:1619, 1994; Mizuno et al., J. Immunol. 162:5477, 1999). With this model, all rats sensitized with 0.05 mg/kg of LPS died within 30 min of injection of mAb 512. Male Wistar rats weighing about 250 g were purchased from Chubu Kagaku Shizai (Nagoya, Japan) and were allowed free access to food and water. Each rat was injected with 0.05 mg/kg of LPS, prepared from a phenol extraction of Salmonella typhosa (Sigma Chemical Co., St. Louis, Mo.) in 250 μl saline. Then, 0.75 mg/kg of 5I2 was administered 20 h later. Ten minutes before the injection of 5I2, saline or C-peptides in saline were injected. All injections were intravenously administered through the tail vein. Animal experiments were carried out according to Nagoya City University Guideline for the Care and Use of Experimental Animals and approved by the Nagoya City University Graduate School of Medical Sciences Animal Care Committee.
Administration of 0.75 mg/kg anti-rat Crry monoclonal antibody (Takizawa et al., J. Immunol. 152:3032, 1994) induces rapid lethal shock in rats primed with 0.05 mg/kg of LPS 20 h earlier (Matsuo et al., J. Exp. Med. 180:1619, 1994; Mizuno et al., J. Immunol. 162:5477, 1999). […] In order to investigate the inhibitory effect of the C-peptides in this model, we injected rats with saline (for the control) or C-peptides in 250 μl of saline 10 min before the 5I2 injection. All rats injected with saline died within 30 min (Table 1). However, all rats injected with 4 mg/kg of Pep-A survived. […] Some of the surviving rats stopped breathing briefly in the first 1 or 2 min after injection of 5I2, but were soon breathing again and about 20-40 min later began moving.

For data set [5], the system named is TGW human neuroblastoma cells bearing C5aR. The data set can be described thus: Patch clamp measurement of inward ion current pulses induced by PL37-MAP. As to conditions: 500 nM PL37-MAP. Type of data set: cell-based. The procedure:
The measurements were carried out on TGW human neuroblastoma cells bearing C5aR. Cells were voltage-clamped at room temperature at a holding potential of −70 mV using a whole cell clamp configuration. The instruments used for electrophysiology were as follows: an Axopatch 200-A patch clamp amplifier, a Digidata-1200 data acquisition system and pCLAMP 6.02 software from Axon Instruments Inc., (Foster City, Calif.). The head stage of the amplifier was fitted to an MHW-3 hydraulic manipulator manufactured by Narishige Inc. (Tokyo, Japan); and the cells were visualized using an Olympus IMT-2 invert microscope. Data acquisition and analysis were performed using an IBM compatible personal computer. Patch electrodes (OD=1.5 mm, thin wall, Garner Glass Co., Claremont, Calif.) were pulled with a PP-83 puller and polished with an MF-83 microforge (Narishige Inc). The resistance of patch electrodes was 8-10 MΩ. The solutions used were as follows: an extracellular solution (10 mM Hepes, 140 mM NaCl, 5 mM KCI, 2 mM CaCl2, 2 mM MgCl2, 10 mM glucose, pH=7.34) and an intracellular pipette solution (10 mM Hepes, 110 mM KCl, 15 mM NaCl, 0.1 mM CaCl2, 2 mM MgCl2, 1 mM EGTA, pH 7.25). […]
Inward calcium current pulses detected by a patch clamp assay were evoked when TGW cells were exposed to 500 nM PL37-MAP (FIG. 2a). […]
For orientation: The patch-clamp technique gives a direct electrical read-out from membranes.

“Also recorded” adds a separate entry of the source. Ends that are not written are not given here. Bounds are passed on as bounds.

As to “A-Pep-A: Peptide with the same sequence as Pep-A with acetylated alanine at the amino-terminal amino acid (Ac-ASGAPAPGPAGPLRPMF)”, the “Inhibition of C5a-triggered Ca++ mobilization” value in data set [1] is listed as “completely inhibited; also recorded: much stronger effect than Pep-A”. In addition, the Dead/total in data set [2] (4 mg/kg i.p., CAWS 100 μg/mouse) is recorded as 3/3; in data set [2] (4 mg/kg i.p., CAWS 200 μg/mouse), 3/3; in data set [2] (4 mg/kg i.v., CAWS 100 μg/mouse) it was “rescued half of mice”; in data set [2] (4 mg/kg i.v., CAWS 100 μg/mouse, listed as A-PepA) it was 2/4; in data set [2] (4 mg/kg i.v., CAWS 200 μg/mouse), 3/3. Besides, the “Blue spots at 2 h” value in data set [3] (5I2 2.5 μg + peptide 40 μg i.d., spots measured from reverse side of removed skin) is recorded as 3 +/− 1. For the same substance, the “Inhibition of dye exudation / skin inflammation” value in data set [3] (summary of Table 3) is reported as “suppressed the dye exudation”.
Take “ASGAPAPGPAGPLRPMF [Pep-A, ASGAPAPGPAGPLRPMF]”: the “Time in which peptide had been degraded in vivo” value in data set [4] (rat, inferred from loss of effect at 30 min pre-dosing) is on record as ≤ 30 min. Besides, the “Harmful / side effects of the peptide in rats” value in data set [4] (rats injected with Pep-A (LPS sensitized, without anti-Crry mAb)) is “survived with no harmful effect; also recorded: without any noticeable deleterious side effects”.
“PL37-MAP: PL37 (C5a fragment aa 37-53, RAARISLGPRCIKAFTE, SEQ ID NO: 2) in multiple antigenic peptide form (also: multiple antigenic peptide form on lysine core) [reference compound]”: the “Amplitude of induced inward current pulses” value in data set [5] is reported as 500 pA.

For the origin of these results see patent publication US7763708B2, “Methods and compositions for modulating C5-a-mediated inflammatory responses” (Institute for Protein Science Co., Ltd., priority 2004, dated 2010).
